Measured values taken from patent US12050218B2, “Mitochondrial protease OMA1 as a marker for breast cancer” (NUtech Ventures, priority 2017, dated 2024).

Columns and labels:
[1] = tested on: oma1−/− mouse embryonic fibroblasts; test: Cell viability / growth rate of MEF cells under glutamate pathway inhibition; assay type: cell-based; settings: 10 μM BPTES, low glucose or 10 mM galactose medium; oma1−/− vs wild type MEFs (FIG. 1B)
Procedure: FIG. 1A depicts extracellular acidification rates (ECAR) in wild type and oma1^−/− mouse embryonic fibroblasts under basal, FCCP-stimulated, and glycolysis-ablating (2-DG) conditions. Cells were cultured in the media containing 10 mM glucose. Data are shown as mean values of 3 independent experiments±S.E.M.; **p<0.01, by unpaired t-test. FIG. 1B depicts growth rate of wild type (WT) and oma1^−/− MEF cells under conditions of glutamate pathway inhibition by BPTES. Cells were cultured in the 10 mM galactose-containing medium with (left panel) or without (right panel) 10 μM BPTES for the indicated periods of time and the number of viable cells at each time point has been assessed. […] FIG. 1D depicts the prevalence of cells with protrusions was analyzed in WT and oma1^−/− MEF cells two days after re-seeding on 6-well plates after one week of growth at 100% confluence. […] Of the cells in the field of view, the number of cells with long lamellopodia and cells with normal lamellopodia were counted. […]
(§1) The wild type and oma1^−/− mouse embryonic fibroblasts (24, obtained from Dr. Carlos Lopez-Otin, University of Oviedo) were seeded into 12-well plates at the density of 4×10^4 cells per well. […] Every 24 hours cells, from one well per condition were trypsinized with 0.05% Trypsin (Life Technologies), washed with Ca-, Mg-PBS, resuspended and counted in Countess Automated Cell Counter (Life Technologies). […]

[2] = tested on: OMA1-depleted 21MT-1 cells; test: Growth rate of control and OMA1-depleted 21MT-1 cells under glutamate pathway inhibition; assay type: cell-based, human; settings: 10 μM BPTES, 10 mM galactose medium; OMA1 KD vs control 21MT-1 cells (FIG. 3C)
Procedure: FIG. 3A depicts a representative oxygen consumption rate (OCR) graph in control and OMA1-depleted 21MT-1 cells under basal, oligomycin A (OLA), FCCP, and Antimycin A/Rotenone (AA+Rot.) stimulated conditions. Cells were cultured in the medium containing 10 mM galactose. FIG. 3B depicts respiratory control ratios in control and OMA1 KD 21MT-1 cells cultured in 10 mM galactose medium. Data represent the mean±S.E.M. (n=3 biological replicates); *p<0.05, by t-test. FIG. 3C depicts the growth rate of control and OMA1-depleted 21MT-1 cells under conditions of glutamate pathway inhibition. Cells were cultured in the 10 mM galactose-containing medium in the presence of 10 μM BPTES for the indicated periods of time and the number of viable cells at each time point has been assessed. Data represent the mean±S.D. (n=3 biological replicates); *p<0.05, ***p<0.001, by unpaired t-test.
as §1

Structure (SMILES): O=C(Cc1ccccc1)Nc1nnc(CCSCCc2nnc(NC(=O)Cc3ccccc3)s2)s1 [BPTES]
- proliferation of oma1−/− MEFs compared with wild type cells [1]: proliferated at much slower rates than wild type cells
- sensitivity of OMA1-depleted 21MT-1 cells to glutaminase inhibitor [2]: marked increase in sensitivity
